Columns and labels:
[1] = Loading (uptake) of target material into MSN, UV-Vis spectroscopy; assay type: physicochemical
[2] = cited from earlier work
[3] = Release of target material from MSN, UV-Vis spectroscopy; conditions: after subsequent pH decrease to approximately pH 5.0

COc1cccc2c1C(=O)c1c(O)c3c(c(O)c1C2=O)C[C@@](O)(C(=O)CO)C[C@@H]3O[C@H]1C[C@H](N)[C@H](O)[C@H](C)O1 [doxorubicin]
uptake into MSN [1]: approximately 3 ug/mg MSN
pKa [2]: ~7
amount released per mg of MSN at equilibrium [3]: about 7.5 ug per mg of MSN
